# PubChem BioAssay AID1918934 (Molecular Pharmacology Branch, DTP, NCI, 2023)
# Values joined by “and” are separate entries in the source; they are usually repeats but may differ in a detail not shown here. Equal entries are not always repeated.
# System: 292921-168-R-J2-PDC complex spheroid viability
# Experiment: Anticancer human tumor 292921-168-R-J2-PDC patient-derived pancreatic carcinoma cell line growth inhibition
# Settings: for viability, T/C: stronger effect = lower value; for IC50: curve of compound
# Text: Multicellular complex tumor spheroid response to LSD1 Inhibitor Iadademstat in combination with a variety of drugs and investigational agents in selected tumor cell lines
# The current study was undertaken to assess response to LSD1 inhibitors in combination with standard-of-care drugs and investigational agents in solid tumor complex spheroid models as well as in the K-562 leukemia. Complex spheroids include a stromal component modeled by human endothelial cells (HUVEC) and fibroblasts modeled by human mesenchymal stem cells (MSCs). The concentration ranges selected for each drug and investigational agent were based upon clinically achievable concentrations if the clinical Cmax of the agent was known.
# Compounds. The drugs and investigational agents used in this study are listed on Table 1. All of the agents used, including staurosporine (NSC755774) and gemcitabine (NSC613327), were obtained from the Developmental Therapeutics Program, NCI. FDA-approved anticancer drugs are available from the NCI at http://dtp.nci.nih.gov/branches/dscb/oncology_drugset_explanation.html. Drugs and investigational agents were >95% pure by proton nuclear magnetic resonance (NMR) and liquid chromatography/mass spectrometry (LC/MS). Stock solutions were prepared at 400x in DMSO, stored at -70 degrees C, and diluted in fresh medium prior to their use. The final concentration of DMSO in cell culture wells never exceeded 0.25% (v/v). The FDA-approved anticancer drug set is available from the Developmental Therapeutics Program at https://dtp.cancer.gov/organization/dscb/obtaining/available_plates.htm. All drugs and investigational agents were tested over a range starting from a high concentration at or near the clinical Cmax and decreasing in half-log increments. If the clinical Cmax for an agent had not been determined, the highest concentration tested was 10 microM.
# Cell Lines. The patient-derived cancer cell (PDC) lines: 292921-168-R-J2-PDC, K24384-001-R-PDC, and 521955-158-R2-J5-PDC pancreatic carcinomas, 556581-035-R-J1 ovarian carcinoma, 324938-238-R-J1-PDC, 855422-203-R-J1-PDC and 883617-216-R-J1-PDC urothelial bladder carcinomas, 743489-274-T-PDC renal cell carcinoma, 138582-R-J1 Merkel cell tumor, K60290-347-R-J1 and K57222-313-R-J1-PDC glioblastomas, 653999-131-R-J2-PDC, LG0703-F948-PDC, and 349418-098-R-PDC non-small cell lung carcinomas, 885512-296-R-J2-PDC, 171881-019-R-J1-PDC breast carcinomas and 186277-243-T-J2-PDC and 233499-124-R-J2-PDC colon carcinomas were obtained from the NCI Patient-Derived Models Repository (PDMR, https://pdmr.cancer.gov). The established cell lines NCI/ADR-RES (RRID:CVCL_14520 and OVCAR-5 (RRID:CVCL_1628) ovarian carcinomas, 786-O (RRID:CVCL_1051) and A498 (RRID:CVCL_A498) renal cell carcinoma, NCI-H211 (ATCC, cat. CRL-5824; RRID:CVCL_1529), NCI-H196 (ATCC, cat. CRL-5823, RRID:CVCL_1509), SW 1271 (ATCC, cat. CRL-2177, RRID:CVCL_1716) and NCI-H1876 (ATCC, cat. CRL-5902, RRID:CVCL_1503) small cell lung carcinomas, MDA-MB-231 (RRID:CVCL_0062) and MDA-MB-468 (RRID:CVCL_0419)breast carcinomas (10-12). Pooled donor human umbilical vein endothelial cells (HUVEC, Lonza, cat. CC-2519) and human mesenchymal stem cells (hMSC, Lonza, cat. PT-2501) were purchased from Lonza (Walkersville, MD).
# Cell Culture. All cells were maintained in an incubator at 37 degrees C and 5% CO2 with 95% humidity. The PDC lines were cultured according to standard operating procedures established by the NCI PDMR (https://pdmr.cancer.gov). Briefly all PDCs were thawed and cultured in Matrigel-coated flasks prepared with a working solution of 1X Ham's F-12 nutrient mix, without supplementation (Invitrogen, Waltham, MA, cat. 11765054), 100 U/mL penicillin-streptomycin (Invitrogen, cat. 15140122), and 2.5% Matrigel (Corning Inc., Corning, NY, cat. 354248) for the first three passages. […]
# 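Note: seven day compound exposure before luminescent viability read.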
# 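Throughout, for viability, T/C: 100% = DMSO vehicle control wells.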
SMILES,"viability, T/C (compound 0.000316 µM)","viability, T/C (compound 0.001 µM)","viability, T/C (compound 0.00316 µM)","viability, T/C (compound 0.01 µM)","viability, T/C (compound 0.0316 µM)","viability, T/C (compound 0.1 µM)",IC50,"viability, T/C (compound 0.316 µM)","viability, T/C (compound 1 µM)","viability, T/C (compound 3.16 µM)","viability, T/C (compound 10 µM)","viability, T/C (compound 0.00949 µM)","viability, T/C (compound 0.03 µM)","viability, T/C (compound 0.0949 µM)","viability, T/C (compound 0.3 µM)","viability, T/C (compound 0.949 µM)","viability, T/C (compound 3 µM)","viability, T/C (compound 0.000949 µM)","viability, T/C (compound 0.003 µM)"
CC(C)CC(NC(=O)C(Cc1ccccc1)NC(=O)c1cnccn1)B(O)O (configuration not stated),18.8% and 20.7%,0.9% and 1.54%,0.34% and 1.04%,0.42% and 0.8%,0.19% and 0.21%,0.21%,< 0.316 nM,,,,,,,,,,,,
CC(C)CC(NC(=O)CNC(=O)c1cc(Cl)ccc1Cl)B1OC(=O)CC(CC(=O)O)(C(=O)O)O1 (configuration not stated),99.1% and 96.2%,113% and 105%,87.8% and 85.7%,17% and 20.2%,6.27% and 3.15%,0.79% and 0.83%,5.86 nM and 5.94 nM,,,,,,,,,,,,
CC(C)c1c(-c2ccccc2)nc2c(C#N)c[nH]n2c1=O,,,,,100% and 101%,97.6% and 101%,> 10000 nM,102% and 93.6%,106% and 98.2%,102% and 105%,65.2% and 70.4%,,,,,,,,
CC1(C)CCC(CN2CCN(c3ccc(C(=O)NS(=O)(=O)c4ccc(NCC5CCOCC5)c([N+](=O)[O-])c4)c(Oc4cnc5[nH]ccc5c4)c3)CC2)=C(c2ccc(Cl)cc2)C1,,,,,105% and 108%,114%,2030 nM and 1980 nM,110% and 108%,98.1% and 94.9%,20% and 19.2%,0.32% and 0.33%,,,,,,,,
CC1COCCN1c1cc(-c2ccnn2C)c2ccnc(-c3ccn[nH]3)c2n1 (configuration not stated),,,15.4% and 15.1%,12.8% and 16.4%,12.4% and 13%,16.3% and 14.8%,< 3.16 nM,17.2% and 17.7%,17.8% and 18.7%,,,,,,,,,,
CC1COCCN1c1cc(C2(S(C)(=N)=O)CC2)nc(-c2ccnc3[nH]ccc23)n1 (configuration not stated),,,,,104% and 96.3%,102% and 99.3%,602 nM and 673 nM,73.6% and 77.7%,31.6% and 35.1%,13.4% and 16.8%,12.6% and 11.3%,,,,,,,,
CCN(c1cc(-c2ccc(CN3CCOCC3)cc2)cc(C(=O)NCc2c(C)cc(C)[nH]c2=O)c1C)C1CCOCC1,,,,,,,1350 nM and 1460 nM,,,,,100% and 99.5%,115% and 103%,99%,85.1% and 80.7%,63.7% and 67.6%,22.2% and 24.3%,,
CC[C@@]1(O)C(=O)OCc2c1cc1n(c2=O)Cc2cc3c(CN(C)C)c(O)ccc3nc2-1,96.8% and 95.3%,79.3% and 94.1%,54.4% and 57.1%,21.4% and 21.1%,9.12% and 10.3%,4.35% and 3.55%,3.45 nM and 4.11 nM,,,,,,,,,,,,
CCc1c2c(nc3ccc(O)cc13)-c1cc3c(c(=O)n1C2)COC(=O)[C@]3(O)CC,,,,,,,< 0.949 nM,,,,,1.25% and 1.31%,0.84% and 1.16%,1.07% and 1.04%,0.92% and 1.24%,,,5.38% and 4.72%,3.5% and 2.75%
COc1cc(C2c3cc4c(cc3C(OC3OC5COC(C)OC5C(O)C3O)C3COC(=O)C23)OCO4)cc(OC)c1O (configuration not stated),,,,,,,39.7 nM and 52.7 nM,,,,,91.1% and 92%,57.8% and 69.4%,26.8% and 28.4%,17.8% and 16.7%,8.57% and 7.24%,5.06% and 4.06%,,
COc1cc(Nc2ncc3c(n2)-c2ccc(Cl)cc2C(c2c(F)cccc2OC)=NC3)ccc1C(=O)O,,,33% and 38.1%,40.7% and 42.1%,36% and 39.1%,30.2% and 37.9%,< 3.16 nM,27.7% and 29.6%,16.1% and 17.5%,,,,,,,,,,
COc1ccc([C@@H](O)c2cc(-c3ncnc4cc(N5CCOCC5)ccc34)c(F)cc2Cl)nn1,,,,,101% and 104%,95.7% and 82.2%,590 nM and 738 nM,61.2% and 71.4%,37.6% and 42.1%,24.7% and 24.6%,11.6% and 13.1%,,,,,,,,
Cn1ncnc1C1c2n[nH]c(=O)c3cc(F)cc(c23)NC1c1ccc(F)cc1 (configuration not stated),86.8% and 103%,102% and 101%,94.5% and 96.3%,93.9% and 94.8%,85.9% and 88.3%,82.3% and 83.5%,> 100 nM,,,,,,,,,,,,
NC1CC1c1ccc(-c2cccc(O)c2)cc1 (configuration not stated),,,,,,80.2%,,71.4% [middle of 24 runs],67.6% [middle of 25 runs],64.6% [middle of 25 runs],54.7% [middle of 25 runs],,,,,,,,
NC1CCC(NC2CC2c2ccccc2)CC1 (configuration not stated),,,,,,65.7% [middle of 25 runs],,56.6% and 63.5%,58% [middle of 25 runs],57.4% [middle of 25 runs],54.2% [middle of 23 runs],,,,,,,,
NS(=O)(=O)OCC1CC(n2ccc3c(NC4CCc5ccccc54)ncnc32)CC1O (configuration not stated),,,,,,,16.4 nM and 18.1 nM,,,,,81.2% and 90.5%,15.7% and 18%,2.87% and 3.52%,1.94% and 1.72%,1.98% and 1.67%,1.78% and 1.54%,,
Nc1ccccc1NC(=O)c1ccc(CNC(=O)OCc2cccnc2)cc1,,,,,,,24.9 nM and 28.3 nM,,,,,67.9% and 65.7%,45.2% and 49.2%,31% and 31.7%,17.2% and 19.8%,4.09% and 5.39%,0.29% and 0.27%,,
Nc1ccn(C2OC(CO)C(O)C2(F)F)c(=O)n1 (configuration not stated),,,,,,,< 0.949 nM,,,,,6.12% and 5.67%,5.81% and 5.6%,8.04% and 6.06%,6.84% and 5.56%,,,39.2% and 33.5%,12% and 10.8%
Nc1ncn(C2CC(O)C(CO)O2)c(=O)n1 (configuration not stated),,,98.6% and 89%,96.7% and 91.5%,71.8% and 82.9%,69.7% and 73.9%,> 1000 nM,63.4% and 63.6%,55.4% and 58.2%,,,,,,,,,,
Nc1ncn(C2CC(O)C(CO)S2)c(=O)n1 (configuration not stated),,,,,,,72.5 nM and 83.7 nM,,,,,84% and 88.4%,72.4% and 80.4%,43.5% and 45.3%,13.5% and 13.6%,,,96.5% and 102%,104% and 92.4%
O=C(C=Cc1cccc(S(=O)(=O)Nc2ccccc2)c1)NO,,,,,,,< 9.49 nM and 12.8 nM,,,,,47.6% and 52.8%,41% and 44.1%,28.8% and 32.3%,18.1% and 25.8%,0.52% and 1.26%,0.15%,,
O=C(C=Cn1cnc(-c2cc(C(F)(F)F)cc(C(F)(F)F)c2)n1)NNc1cnccn1,,,59.5% and 55.2%,55.9% and 55%,30.4% and 29.4%,14.4% and 14.1%,12.4 nM and 11.4 nM,8.05% and 8.45%,5.62% and 5.3%,,,,,,,,,,
O=C(c1cc(Cc2n[nH]c(=O)c3ccccc23)ccc1F)N1CCN(C(=O)C2CC2)CC1,,,,,106% and 100%,98.8% and 100%,9280 nM and 7490 nM,98.5% and 99.6%,95.4% and 85.9%,74.9% and 73%,48.1% and 42.4%,,,,,,,,
